This note sets out measurements from patent US20170128489A1 (priority 2014, published 2017).

As a reminder, the melting point is the temperature, or range, at which the solid turns liquid. `NC(=O)CN(CC(N)=O)C1CCCCCCC1` [CO-IDAm, Cyclooctylimidodiacetamide] had a melting point of 152 to 154 °C.
